Source: article PMC4450297, “Screening Active Compounds from Garcinia Species Native to China Reveals Novel Compounds Targeting the STAT/JAK Signaling Pathway” (BioMed Research International, 2015)

System: ChaGo-K-1
Test: Cell panel screen (CellTiter-Glo)
Type: cell-based, human
Settings: ChaGo-K-1 (Lung), 20 micromolar, 72 hrs
Procedure: (§1) All cells were obtained from the cell bank of the American Type Culture Collection (ATCC) and cultured in the supplier's recommended media supplemented with 10% FBS. The cell panel screen was measured using the CellTiter-Glo assay (Promega, Madison, WI) following a standard protocol. Briefly, cancer cells were seeded in 96-well plates and cultured overnight at 37°C with or without 5% CO2 in an incubator. Each compound was dissolved with limited DMSO and diluted to a certain concentration with culture medium and then added to the corresponding well of the cell plate. The final concentration of compound was 20 μM. The control cells (without treatment) received the same amount of DMSO and were incubated under the same conditions. After 72 h cultivation, 100 μL of the CellTiter-Glo reagent was added directly to each well for 10-minute incubation. The plate was then read on a FlexStation 3 microplate luminometer (Molecular Devices, USA) to monitor the luminescence signal generated by the luciferase-catalyzed reaction of luciferin and ATP. The percent of growth inhibition was calculated using the following formula: (untreated cells − treated cells)/(untreated cells − background without cells) ∗ 100.

**Q.** With COc1cc(O)c2c(=O)c3c(CC=C(C)C)cc(O)c(O)c3oc2c1CC=C(C)CCC=C(C)C [Go-23] as the molecule, how does the “Percent Inhibition” value read?
**A.** 94%

System: HEC-1-A
Test: Cell panel screen (CellTiter-Glo)
Type: cell-based, human
Settings: HEC-1-A (Uterus), 20 micromolar, 72 hrs
Procedure: as §1

**Q.** COc1cc(O)c2c(=O)c3c(CC=C(C)C)cc(O)c(O)c3oc2c1CC=C(C)CCC=C(C)C [Go-23] was tested. Which “Percent Inhibition” value did it give?
**A.** 76%

System: HCC1569
Test: Cell panel screen (CellTiter-Glo)
Type: cell-based, human
Settings: HCC1569 (Breast), 20 micromolar, 72 hrs
Procedure: as §1

**Q.** COc1cc(O)c2c(=O)c3c(CC=C(C)C)cc(O)c(O)c3oc2c1CC=C(C)CCC=C(C)C [Go-23] was tested. Which “Percent Inhibition” value did it give?
**A.** 97%

System: Colo 205
Test: Cell panel screen (CellTiter-Glo)
Type: cell-based, human
Settings: Colo 205, 20 micromolar, 72 hrs
Procedure: as §1

**Q.** For COc1cc(O)c2c(=O)c3c(CC=C(C)C)cc(O)c(O)c3oc2c1CC=C(C)CCC=C(C)C [Go-23], which “Percent Inhibition” value is on record?
**A.** 96%

System: C8166
Test: Cell panel screen (CellTiter-Glo)
Type: cell-based, human
Settings: C8166 (Leukemia), 20 micromolar, 72 hrs
Procedure: as §1

**Q.** COc1cc(O)c2c(=O)c3c(CC=C(C)C)cc(O)c(O)c3oc2c1CC=C(C)CCC=C(C)C [Go-23] was tested. Which “Percent Inhibition” value did it give?
**A.** 95%

System: HCC1599
Test: Cell panel screen (CellTiter-Glo)
Type: cell-based, human
Settings: HCC1599 (Breast), 20 micromolar, 72 hrs
Procedure: as §1

**Q.** How did the “Percent Inhibition” value turn out when COc1cc(O)c2c(=O)c3c(CC=C(C)C)cc(O)c(O)c3oc2c1CC=C(C)CCC=C(C)C [Go-23] was run?
**A.** 98%

System: M059J
Test: Cell panel screen (CellTiter-Glo)
Type: cell-based, human
Settings: M059J (Brain), 20 micromolar, 72 hrs
Procedure: as §1

**Q.** Which “Percent Inhibition” value does the source give for COc1cc(O)c2c(=O)c3c(CC=C(C)C)cc(O)c(O)c3oc2c1CC=C(C)CCC=C(C)C [Go-23] here?
**A.** 93%

System: HPAF-II
Test: Cell panel screen (CellTiter-Glo)
Type: cell-based, human
Settings: HPAF-II (Pancreas), 20 micromolar, 72 hrs
Procedure: as §1

**Q.** For COc1cc(O)c2c(=O)c3c(CC=C(C)C)cc(O)c(O)c3oc2c1CC=C(C)CCC=C(C)C [Go-23], which “Percent Inhibition” value is on record?
**A.** 82%

System: NCI-H1770
Test: Cell panel screen (CellTiter-Glo)
Type: cell-based, human
Settings: NCI-H1770 (Lung), 20 micromolar, 72 hrs
Procedure: as §1

**Q.** How did the “Percent Inhibition” value turn out when COc1cc(O)c2c(=O)c3c(CC=C(C)C)cc(O)c(O)c3oc2c1CC=C(C)CCC=C(C)C [Go-23] was run?
**A.** 98%

System: HT-1197
Test: Cell panel screen (CellTiter-Glo)
Type: cell-based, human
Settings: HT-1197 (Urinary bladder), 20 micromolar, 72 hrs
Procedure: as §1

**Q.** For COc1cc(O)c2c(=O)c3c(CC=C(C)C)cc(O)c(O)c3oc2c1CC=C(C)CCC=C(C)C [Go-23], which “Percent Inhibition” value is on record?
**A.** 96%

System: T98G
Test: Cell panel screen (CellTiter-Glo)
Type: cell-based, human
Settings: T98G (Brain), 20 micromolar, 72 hrs
Procedure: as §1

**Q.** With COc1cc(O)c2c(=O)c3c(CC=C(C)C)cc(O)c(O)c3oc2c1CC=C(C)CCC=C(C)C [Go-23] as the molecule, how does the “Percent Inhibition” value read?
**A.** 98%

System: HCC1937
Test: Cell panel screen (CellTiter-Glo)
Type: cell-based, human
Settings: HCC1937 (Breast), 20 micromolar, 72 hrs
Procedure: as §1

**Q.** COc1cc(O)c2c(=O)c3c(CC=C(C)C)cc(O)c(O)c3oc2c1CC=C(C)CCC=C(C)C [Go-23] was tested. Which “Percent Inhibition” value did it give?
**A.** 96%

System: A704
Test: Cell panel screen (CellTiter-Glo)
Type: cell-based, human
Settings: A704 (Kidney), 20 micromolar, 72 hrs
Procedure: as §1

**Q.** For COc1cc(O)c2c(=O)c3c(CC=C(C)C)cc(O)c(O)c3oc2c1CC=C(C)CCC=C(C)C [Go-23], which “Percent Inhibition” value is on record?
**A.** 96%

System: NCI-H2405
Test: Cell panel screen (CellTiter-Glo)
Type: cell-based, human
Settings: NCI-H2405 (Lung), 20 micromolar, 72 hrs
Procedure: as §1

**Q.** COc1cc(O)c2c(=O)c3c(CC=C(C)C)cc(O)c(O)c3oc2c1CC=C(C)CCC=C(C)C [Go-23] was tested. Which “Percent Inhibition” value did it give?
**A.** 98%

System: HGC-27
Test: Cell panel screen (CellTiter-Glo)
Type: cell-based, human
Settings: HGC-27 (Stomach), 20 micromolar, 72 hrs
Procedure: as §1

**Q.** How did the “Percent Inhibition” value turn out when COc1cc(O)c2c(=O)c3c(CC=C(C)C)cc(O)c(O)c3oc2c1CC=C(C)CCC=C(C)C [Go-23] was run?
**A.** 97%

System: C3A
Test: Cell panel screen (CellTiter-Glo)
Type: cell-based, human
Settings: C3A (Liver), 20 micromolar, 72 hrs
Procedure: as §1

**Q.** COc1cc(O)c2c(=O)c3c(CC=C(C)C)cc(O)c(O)c3oc2c1CC=C(C)CCC=C(C)C [Go-23] was tested. Which “Percent Inhibition” value did it give?
**A.** 77%

System: NCI-H1694
Test: Cell panel screen (CellTiter-Glo)
Type: cell-based, human
Settings: NCI-H1694 (Lung), 20 micromolar, 72 hrs
Procedure: as §1

**Q.** For COc1cc(O)c2c(=O)c3c(CC=C(C)C)cc(O)c(O)c3oc2c1CC=C(C)CCC=C(C)C [Go-23], which “Percent Inhibition” value is on record?
**A.** 98%

System: NCI-H2347
Test: Cell panel screen (CellTiter-Glo)
Type: cell-based, human
Settings: NCI-H2347 (Lung), 20 micromolar, 72 hrs
Procedure: as §1

**Q.** Which “Percent Inhibition” value does the source give for COc1cc(O)c2c(=O)c3c(CC=C(C)C)cc(O)c(O)c3oc2c1CC=C(C)CCC=C(C)C [Go-23] here?
**A.** 68%
